Assay results from patent US7038028B1, “Gene encoding promoter domain of tumor suppressor gene P51 and use thereof” (Toshiyuki Sakai, priority 1999, dated 2006).
“Also recorded” adds a separate entry of the source.

What was measured:
Format in all cases: cell-based, human
p51 promoter [1] = assay: Luciferase assay in geneticin-selected HCT116/p51 promoter clones
Method: The medium in the cell culture dish was removed, and 5 ml of the cell lysis reagent (25 mM Tris-HCl, pH 7.8, 2 mM dithiothreitol, 2 mM CDTA, 0.2% triton X-100, 10% glycerol) was added and incubated at room temperature for 15 minutes.
As the plasmid-introduced cells, the HCT116 cell line was used. 500,000 cells of HCT116 cell were plated on a cuture dish with a diameter of 60 mm. The medium used was McCOY's 5A/10% FBS. These were cultured in the presence of 5% carbon dioxide at 37° C. for 48 hours. The medium was replaced with McCOY's 5A containing no serum. As the plasmid for introduction, two μg of pGL2-neo/p51 promoter was dissolved in 4 μl of the TE solution to prepare a plasmid solution. The plasmid was introduced using the lipofectamine plus reagent (manufactured by GIBCO BRL). Thus, 125 μl of McCOY's 5A and 8 μl of the plus solution were added to the plasmid solution, stirred well, and then incubated at room temperature for 15 minutes. To this solution, 125 μl of McCOY's 5A and 12 μl of the lipofectamine solution were added, stirred well, and then incubated at room temperature for further 15 minutes. This was added to the HCT116 cells cultured by the above procedure, gently mixed, and incubated in the presence of 5% carbon dioxide at 37° C. for three hours to permit the introduction of the plasmid. Subsequently, the medium was replaced with McCOY's 5A/10% FBS, and incubated in the presence of 5% carbon dioxide at 37° C. for 21 hours. Then, the cells were recovered from the culture dish with PBS containing 0.25% trypsin and 0.02% EDTA, and 1% amount thereof was plated onto a culture dish with a diameter of 100 mm. It was further cultured in McCOY's 5A/10% FBS medium in the presence of 5% carbon dioxide at 37° C. for further 72 hours, and then 1.2 mg/ml of geneticin (manufactured by Nacalai Tesque) was added as a selection drug. By replacing the medium every three days, and further culturing in the above condition for further two weeks, the cells into whose genes the plasmid gene was introduced, and became geneticin-resistant, were selected. Subsequently, 50 clones were isolated from the cell group that formed colonies on the dish, and were plated on a 24-well culture dish to continue being cultured.
Thus, the reactivity of these clones to trichostatin A was investigated by the following procedure. 500,000 cells each of the cloned cells were plated on a cuture dish with a diameter of 60 mm. The medium used was McCOY's 5A/10% FBS. These were cultured in the presence of 5% carbon dioxide at 37° C. for 48 hours. Then, trichostatin A was added to the two groups of cells to a final concentration of 0 or 0.1 μg/ml, and cultured in the presence of 5% carbon dioxide at 37° C. for 24 hours. For these cells, their luciferase activity was determined to examine the effect on the p51 promoter activity. The luciferase activity was determined according to the above method.

p51 promoter [2] = assay: Luciferase reporter assay in HCT116 cells transiently transfected with pGL2-neo/p51 promoter; conditions: HCT116, 1 μg/ml trichostatin A vs 0, 24 hours
Method: Subsequently, the following experiment was carried out in order to perform functional analysis of the p51 promoter region. 200,000 cells of HCT116 were plated on a culture dish with a diameter of 60 mm. The medium used was McCOY's 5A/10% FBS. These were cultured in the presence of 5% carbon dioxide at 37° C. for 48 hours. The medium was replaced with McCOY's 5A containing no serum. Subsequently, 2 μg each of pGL2-neo/p51 promoter or pGL2-neo vector was introduced. The plasmid was introduced using the lipofectamine plus reagent (manufactured by GIBCO BRL). Thus, 125 μl of McCOY's 5A and 8 μl of the plus solution were added to the plasmid solution, stirred well, and then incubated at room temperature for 15 minutes. To this solution, 125 μl of McCOY's 5A and 12 μl of lipofectamine solution were added, stirred well, and then incubated at room temperature for further 15 minutes. This was added to the HCT116 cells incubated by the above procedure, gently mixed, and cultured in the presence of 5% carbon dioxide at 37° C. for three hours to introduce plasmid. Subsequently, the medium was replaced with McCOY's 5A/10% FBS, and cultured in the presence of 5% carbon dioxide at 37° C. for 21 hours. […] For these cells, the luciferase activity was determined to investigate promoter activity. […] The luciferase activity was determined according to the following method. […]

p51A mRNA = assay: Northern blotting of the amount of p51 expressed in HCT116 cells after stimulation with drugs; conditions: 24 hours treatment, 1 μg/ml trichostatin A, Northern blotting of 20 μg RNA
Method: A variety of stimulations including stimulation with a drug were applied to a cell line HCT116 derived from colon cancer to investigate changes in the amount expressed of p51 by Northern blotting. 200,000 cells of HCT116 cells were plated on a culture dish with a diameter of 60 mm, and cultured in the presence of 5% carbon dioxide at 37° C. for two days. The medium used was McCOY's 5A (manufactured by Nisseiken) to which fetal bovine serum (FBS) was added to a final concentration of 10% (referred to hereinafter as McCOY's 5A/10% FBS). Then it was treated with A23187 (0.1 μM, 1 μM), cisplatin (1 μg/ml, 10 μg/ml), CPTcAMP (0.1 μM, 1 μM), etoposide (10 μg/ml, 0.1 μg/ml), genistein (1 μM, 10 μM), ML-236B (1 μg/ml, 10 μg/ml), milurinone (1 μM, 10 μM), mitomycin C (5 μg/ml, 50 μg/ml), NKH477 (0.1 μM, 1 μM), okadaic acid (1 nM, 10 nM), radicicol (0.1 μg/ml, 1 μg/ml), staurosporin (1 nM, 10 nM), taxol (1 μg/ml, 10 μg/ml), trichostatin A (0.1 μg/ml, 1 μg/ml), radiation (50 J/m^2, 100 J/m^2), vitamin D3 (10 nM, 100 nM), vincristine (1 μg/ml, 10 μg/ml), and wortmannin (0.1 μM, […]), and further cultured in the presence of 5% carbon dioxide at 37° C. for 24 hours. Then, from the cells, RNA was prepared using ISOGEN (manufactured by Nippongene). […] Then, the membrane was analyzed on autoradiography.

CC(/C=C/C(=O)NO)=C\[C@@H](C)C(=O)c1ccc(N(C)C)cc1 [trichostatin A]
measured values of luciferase activity, clone #5 (p51 promoter [1]; HCT116/p51 promoter clone #5, with TsA 0.1 μg/ml, 24 hours (without TsA 3.9)): 29.5
measured values of luciferase activity, clone #9 (p51 promoter [1]; HCT116/p51 promoter clone #9, with TsA 0.1 μg/ml, 24 hours (without TsA 1.0)): 33.3
measured values of luciferase activity, clone #17 (p51 promoter [1]; HCT116/p51 promoter clone #17, with TsA 0.1 μg/ml, 24 hours (without TsA 17.0)): 44.1
measured values of luciferase activity, clone #18 (p51 promoter [1]; HCT116/p51 promoter clone #18, with TsA 0.1 μg/ml, 24 hours (without TsA 6.8)): 14.0
luciferase activity of cloned cells (p51 promoter [1]; several clones, 0.1 μg/ml trichostatin A, 24 hours): significantly enhanced luciferase activity
luciferase activity (fluorescence/chemiluminescence intensity) of pGL2-neo/p51 promoter-introduced cells (p51 promoter [2]): further remarkably enhanced; also recorded: markedly enhanced
amount of p51A mRNA (specific band that reacts with p51A-derived cDNA) (p51A mRNA): transactivates p51; also recorded: specific band that reacts with p51A-derived cDNA was only observed
